# From ChEMBL document CHEMBL1137771, “Non-nucleoside inhibitors of HCV polymerase NS5B. Part 2: Synthesis and structure-activity relationships of benzothiazine-substituted quinolinediones” (Bioorg Med Chem Lett, 2009)
# Legend:
# [1] = Cytotoxicity against human 2209-23 cells by WST1 assay; assay type: cell-based
# Hepatitis C virus [2] = test: Antiviral activity against HCV genotype 1b isolate con1 infected in human 2209-23 cells assessed as inhibition of [3H]thymidine incorporation into DNA by scintillation proximity assay in presence of 40% human serum albumin; assay type: functional, organism-based, Hepacivirus hominis; conditions: isolate Con1, 2209-23
# Hepatitis C virus [3] = test: Inhibition of HCV genotype 1b isolate con1 NS5B polymerase assessed as incorporation of radiolabeled nucleotide into RNA product; parameters: species or system Hepacivirus hominis
# Hepatitis C virus [4] = test: Antiviral activity against HCV genotype 1b isolate con1 infected in human 2209-23 cells assessed as inhibition of [3H]thymidine incorporation into DNA by scintillation proximity assay in presence of 5% fetal bovine serum; assay type: functional, organism-based, Hepacivirus hominis; conditions: isolate Con1, 2209-23
# [5] = Solubility of the compound; assay type: physicochemical
# [6] = Oral bioavailability in rat; assay type: ADME, organism-based; conditions: in vivo
# Hepatitis C virus [7] = test: Inhibition of HCV 1b isolate BK NS5B Cdelta21 polymerase expressed in Escherichia coli; parameters: species or system Hepatitis C virus subtype 1b
# Hepatitis C virus [8] = test: Ratio of EC50 for HCV genotype 1b isolate con1 in presence of human serum albumin to EC50 for HCV genotype 1b isolate con1 in presence of fetal bovine serum; assay type: functional, Hepacivirus hominis
# [9] = Dissociation constant, pKa of the compound; assay type: physicochemical
# Hepatitis C virus [10] = test: Antiviral activity against HCV genotype 1b infected in human HuH7 cells by replicon assay; assay type: functional, organism-based, Hepacivirus hominis; conditions: Huh-7
SMILES,CC50 [1],EC50 (Hepatitis C virus [2]),IC50 (Hepatitis C virus [3]),EC50 (Hepatitis C virus [4]),solubility [5],bioavailability [6],IC50 (Hepatitis C virus [7]),fold change (FC) (Hepatitis C virus [8]),pKa [9],EC50 (Hepatitis C virus [10])
CC(C)(C)CCn1c(=O)c(C2=CS(=O)(=O)c3cc(NS(C)(=O)=O)ccc3N2)c(O)c2cc(F)ccc21,> 50000 nM,241 nM,12 nM,,,,,,,
CC(=O)Nc1ccc2c(c1)S(=O)(=O)C=C(c1c(O)c3cc(F)ccc3n(Cc3ccc(F)cc3)c1=O)N2,> 50000 nM,,869 nM,10900 nM,,,,,,
CS(=O)(=O)Nc1ccc2c(c1)S(=O)(=O)C=C(c1c(O)c3cc(F)ccc3n(CC3CCCCC3)c1=O)N2,> 50000 nM,,18 nM,100 nM,,,,,,
O=c1c(C2=CS(=O)(=O)c3ccccc3N2)c(O)c2cc(F)ccc2n1Cc1ccc(F)cc1,> 50000 nM,,,726 nM,,,,,,
CS(=O)(=O)Nc1ccc2c(c1)S(=O)(=O)C=C(c1c(O)c3cc(F)ccc3n(Cc3cccnc3)c1=O)N2,> 50000 nM,,22 nM,589 nM,,,,,,
O=c1c(C2=Nc3ccccc3S(=O)(=O)N2)c(O)c2cc(F)ccc2n1CCC1CC1,,,,,< 1 µg/mL,10%,30 nM,,,
NC(=O)COc1ccc2c(c1)S(=O)(=O)C=C(c1c(O)c3cc(F)ccc3n(Cc3ccc(F)cc3)c1=O)N2,> 50000 nM,,10 nM,1190 nM,,,,,,
O=c1c(C2=CS(=O)(=O)c3cc(O)ccc3N2)c(O)c2cc(F)ccc2n1Cc1ccc(F)cc1,> 50000 nM,,69 nM,1740 nM,,,,,,
CS(=O)(=O)Nc1ccc2c(c1)S(=O)(=O)C=C(c1c(O)c3cc(Cl)ccc3n(Cc3ccc(F)cc3)c1=O)N2,> 50000 nM,,10 nM,166 nM,,,,,,
CNC(=O)COc1ccc2c(c1)S(=O)(=O)C=C(c1c(O)c3cc(F)ccc3n(Cc3ccc(F)cc3)c1=O)N2,> 50000 nM,,25 nM,869 nM,,,,,,
COC(C)(C)CCn1c(=O)c(C2=CS(=O)(=O)c3cc(NS(C)(=O)=O)ccc3N2)c(O)c2cc(F)ccc21,> 50000 nM,1200 nM,10 nM,47 nM,,,,9.2,,
CS(=O)(=O)Nc1ccc2c(c1)S(=O)(=O)C=C(c1c(O)c3cccc(F)c3n(Cc3ccc(F)cc3)c1=O)N2,> 50000 nM,2780 nM,8 nM,103 nM,,,,26.9,,
Nc1ccc2c(c1)S(=O)(=O)C=C(c1c(O)c3cc(F)ccc3n(Cc3ccc(F)cc3)c1=O)N2,> 50000 nM,,734 nM,827 nM,,,,,,
CS(=O)(=O)Nc1ccc2c(c1)S(=O)(=O)C=C(c1c(O)c3cc(F)ccc3n(Cc3ccc(F)c(Cl)c3)c1=O)N2,> 50000 nM,,16 nM,18 nM,,,,,,
NS(=O)(=O)Nc1ccc2c(c1)S(=O)(=O)C=C(c1c(O)c3cc(F)ccc3n(Cc3ccc(F)cc3)c1=O)N2,> 50000 nM,,7 nM,15 nM,,,,,,
CS(=O)(=O)Nc1ccc2c(c1)S(=O)(=O)C=C(c1c(O)c3cc(F)ccc3n(Cc3ccc(F)cc3)c1=O)N2,> 50000 nM,,,14 nM,,,,13,3.8,
N#Cc1ccc2c(c1)S(=O)(=O)C=C(c1c(O)c3cc(F)ccc3n(Cc3ccc(F)cc3)c1=O)N2,> 50000 nM,,694 nM,4640 nM,,,,,,

SMILES,CC50 [1],EC50 (Hepatitis C virus [2]),IC50 (Hepatitis C virus [3]),EC50 (Hepatitis C virus [4]),solubility [5],bioavailability [6],IC50 (Hepatitis C virus [7]),fold change (FC) (Hepatitis C virus [8]),pKa [9],EC50 (Hepatitis C virus [10])
CS(=O)(=O)Nc1ccc2c(c1)S(=O)(=O)C=C(c1c(O)c3c(Cl)cccc3n(Cc3ccc(F)cc3)c1=O)N2,> 50000 nM,593 nM,12 nM,48 nM,,,,12.3,,
O=c1c(C2=CS(=O)(=O)c3cc(F)ccc3N2)c(O)c2cc(F)ccc2n1Cc1ccc(F)cc1,> 50000 nM,,148 nM,1280 nM,,,,,,
CS(=O)(=O)Nc1ccc2c(c1)S(=O)(=O)C=C(c1c(O)c3cc(F)ccc3n(Cc3ccccc3)c1=O)N2,> 50000 nM,406 nM,7 nM,44 nM,,,,9.2,,
CS(=O)(=O)Nc1ccc2c(c1)S(=O)(=O)C=C(c1c(O)c3ccc(F)cc3n(Cc3ccc(F)cc3)c1=O)N2,> 50000 nM,898 nM,10 nM,74 nM,,,,12.1,,
CS(=O)(=O)c1ccc2c(c1)S(=O)(=O)C=C(c1c(O)c3cc(F)ccc3n(Cc3ccc(F)cc3)c1=O)N2,> 50000 nM,,3700 nM,11900 nM,,,,,,
CS(=O)(=O)NCc1ccc2c(c1)S(=O)(=O)C=C(c1c(O)c3cc(F)ccc3n(Cc3ccc(F)cc3)c1=O)N2,> 50000 nM,,68 nM,6930 nM,,,,,,
Cc1ccc2c(c1)c(O)c(C1=CS(=O)(=O)c3cc(NS(C)(=O)=O)ccc3N1)c(=O)n2Cc1ccc(F)cc1,> 50000 nM,,17 nM,25 nM,,,,,,
COc1ccc2c(c1)c(O)c(C1=CS(=O)(=O)c3cc(NS(C)(=O)=O)ccc3N1)c(=O)n2Cc1ccc(F)cc1,> 50000 nM,2050 nM,5 nM,143 nM,,,,14.3,,
CS(=O)(=O)Nc1ccc2c(c1)S(=O)(=O)C=C(c1c(O)c3ccc(Cl)cc3n(Cc3ccc(F)cc3)c1=O)N2,> 50000 nM,,384 nM,2280 nM,,,,,,
COc1cc(Cn2c(=O)c(C3=CS(=O)(=O)c4cc(NS(C)(=O)=O)ccc4N3)c(O)c3cc(F)ccc32)ccc1F,> 50000 nM,528 nM,10 nM,100 nM,,,,9.2,,
CS(=O)(=O)Nc1ccc2c(c1)S(=O)(=O)C=C(c1c(O)c3ccccc3n(Cc3ccc(F)cc3)c1=O)N2,> 50000 nM,542 nM,2 nM,42 nM,,,,13,,
O=c1c(C2=CS(=O)(=O)c3ccccc3N2)c(O)c2cc(F)ccc2n1CCC1CC1,,,,,8 µg/mL,79%,,,,1200 nM
CS(=O)(=O)Nc1ccc2c(c1)S(=O)(=O)C=C(c1c(O)c3cc(F)ccc3n(Cc3ccncc3)c1=O)N2,> 50000 nM,688 nM,11 nM,64 nM,,,,9.2,,
CS(=O)(=O)Nc1ccc2c(c1)S(=O)(=O)C=C(c1c(O)c3cc(F)ccc3n(Cc3ccccn3)c1=O)N2,> 50000 nM,,103 nM,1200 nM,,,,,,
CS(=O)(=O)Nc1ccc2c(c1)S(=O)(=O)C=C(c1c(O)c3cc(F)ccc3n(Cc3ccc(F)c(F)c3)c1=O)N2,> 50000 nM,,14 nM,15 nM,,,,,,
CN(c1ccc2c(c1)S(=O)(=O)C=C(c1c(O)c3cc(F)ccc3n(Cc3ccc(F)cc3)c1=O)N2)S(C)(=O)=O,> 50000 nM,,106 nM,1470 nM,,,,,,
CCCC(C)n1c(=O)c(C2=CS(=O)(=O)c3cc(NS(C)(=O)=O)ccc3N2)c(O)c2cc(F)ccc21 (stereo not given),> 50000 nM,,41 nM,9 nM,,,,,,
